# pIC50: −log10 of the molar value. Counter-ions that a name gives are not always drawn.
# Assays:
# PLA2 = experiment: Anti-PLA2 activity (Table 6); format: biochemical; settings: read-out: IC-50 Anti-PLA2 Activity
# [1] = Anti-oxidant activity (Table 6); settings: read-out: IC-50 Anti-Oxidant Activity; nd = not detectable at ≤ 500 uM
SMILES,pIC50 (PLA2),pIC50 [1]
CCCCC/C=C\C/C=C\CCCCCCCC(=O)OC(C(=O)O)C(OC(=O)CCCCCCC/C=C\C/C=C\CCCCC)C(=O)O (centres unmarked) [PX-9],5.12,4.00
CCCCCCCC/C=C\CCCCCCCC(=O)OC(C(=O)O)C(OC(=O)CCCCCCC/C=C\CCCCCCCC)C(=O)O (centres unmarked) [PX-10],5.15,4.22
"CCCCCCCC/C=C\CCCCCCCC(=O)OCC1(COC(=O)CCCCCCC/C=C\CCCCCCCC)COC(=O)CN1C(=O)CCCCCCC/C=C\CCCCCCCC [PX-11, Tricinyl Trioleate]",5.59,3.84
"CCCCCCCC/C=C\CCCCCCCC(=O)OCC(N)(COC(=O)CCCCCCC/C=C\CCCCCCCC)COC(=O)CCCCCCC/C=C\CCCCCCCC [PX-12, P-Toluene Sulfonate Salt of Tris Trioleate]",5.82,4.30
"CCCCCCCC/C=C\CCCCCCCC(=O)OCC(COC(=O)CCCCCCC/C=C\CCCCCCCC)(COC(=O)CCCCCCC/C=C\CCCCCCCC)NCCS(=O)(=O)O [PX-13, TES Trioleate]",5.66,4.22
CCCCC/C=C\C/C=C\CCCCCCCC(=O)OCC1(COC(=O)CCCCCCC/C=C\C/C=C\CCCCC)COC(=O)CN1C(=O)CCCCCCC/C=C\C/C=C\CCCCC [PX-15],4.72,

# Reference: patent publication EP0490919B1, “CYTOPROTECTIVE COMPOUNDS BEARING UNSATURATED HYDROCARBON GROUPS HAVING 16 TO 20 CARBON ATOMS” (VIRGINIA COMMONWEALTH UNIVERSITY, priority 1989, dated 1991)
